Measured values published in PubChem BioAssay AID216 (DTP/NCI, 2004).
“And” between values parts separate entries of the source, which are not always exact repeats. Equal entries are not always repeated. Inconclusive results and toxic doses are left out.

Tested on: BDF1 mice, P288 leukemia ip, survival T/C
Test: NCI In Vivo Anticancer Drug Screen. Data for tumor model P288 Lymphocytic Leukemia (intraperitoneal) in B6D2F1 (BDF1) mice
Settings: endpoint: survival time, mean or median, higher = longer survival
Protocol: The antitumor activity of compounds was measured in mice bearing transplantable tumors. Survival or tumor size were measured and the results are expressed as the measurement made in the treated group (T) divided by the measurement made in the vehicle treated control group (C). The tumor model used in this assay is P288 Lymphocytic Leukemia (intraperitoneal) in B6D2F1 (BDF1) mice

[1] = dose: 2.0 mg/kg/injection, schedule: Q01DX010 (ip), vehicle: saline
[2] = dose: 0.63 mg/kg/injection, schedule: Q01DX Z (ip), vehicle: carboxymethylcellulose (CMC)
[3] = dose: 1.25 mg/kg/injection, schedule: Q01DX010 (ip), vehicle: saline
[4] = dose: 1.25 mg/kg/injection, schedule: Q01DX Z (ip), vehicle: carboxymethylcellulose (CMC)
[5] = dose: 10.0 mg/kg/injection, schedule: Q01DX010 (ip), vehicle: saline

## NC(=O)N(CCCl)N=O
dose: 0.5 mg/kg/injection, schedule: Q01DX010 (ip), vehicle: saline
  T/C: 205 % of control
dose: 1.0 mg/kg/injection, schedule: Q01DX010 (ip), vehicle: saline
  T/C: 222 % of control
dose: 1.0 mg/kg/injection, schedule: Q01DX Z (ip), vehicle: carboxymethylcellulose (CMC)
  T/C: 105 % of control
[1]
  T/C: 166 % of control
dose: 2.0 mg/kg/injection, schedule: Q01DX Z (ip), vehicle: carboxymethylcellulose (CMC)
  T/C: 98 % of control
dose: 4.0 mg/kg/injection, schedule: Q01DX Z (ip), vehicle: carboxymethylcellulose (CMC)
  T/C: 104 % of control
dose: 8.0 mg/kg/injection, schedule: Q01DX Z (ip), vehicle: carboxymethylcellulose (CMC)
  T/C: 152 % of control and 210 % of control

## CN(C)c1ccc(/C=C\c2ccnc3ccccc23)cc1
dose: 6.25 mg/kg/injection, schedule: Q01DX Z (ip), vehicle: water
  T/C: 98 % of control
dose: 12.0 mg/kg/injection, schedule: Q01DX010 (ip), vehicle: saline
  T/C: 88 % of control
dose: 12.5 mg/kg/injection, schedule: Q01DX Z (ip), vehicle: water
  T/C: 98 % of control
dose: 18.0 mg/kg/injection, schedule: Q01DX010 (ip), vehicle: saline
  T/C: 88 % of control
dose: 25.0 mg/kg/injection, schedule: Q01DX Z (ip), vehicle: water
  T/C: 100 % of control
dose: 27.0 mg/kg/injection, schedule: Q01DX010 (ip), vehicle: saline
  T/C: 94 % of control
dose: 40.0 mg/kg/injection, schedule: Q01DX010 (ip), vehicle: saline
  T/C: 88 % of control
dose: 50.0 mg/kg/injection, schedule: Q01DX Z (ip), vehicle: water
  T/C: 105 % of control
dose: 100.0 mg/kg/injection, schedule: Q01DX Z (ip), vehicle: water
  T/C: 108 % of control
dose: 200.0 mg/kg/injection, schedule: Q01DX Z (ip), vehicle: water
  T/C: 90 % of control

## CN(C)[C@@H]1C(=O)C(C(N)=O)=C(O)[C@@]2(O)C(=O)C3=C(O)c4c(O)cccc4C[C@H]3C[C@@H]12
dose: 7.5 mg/kg/injection, schedule: Q01DX010 (ip), vehicle: saline
  T/C: 94 % of control
dose: 15.0 mg/kg/injection, schedule: Q01DX010 (ip), vehicle: saline
  T/C: 105 % of control and 94 % of control
dose: 30.0 mg/kg/injection, schedule: Q01DX010 (ip), vehicle: saline
  T/C: 122 % of control and 100 % of control
dose: 60.0 mg/kg/injection, schedule: Q01DX010 (ip), vehicle: saline
  T/C: 94 % of control and 100 % of control

## NC(Cc1ccc(N(CCCl)CCCl)cc1)C(=O)O (stereo not given)
dose: 0.31 mg/kg/injection, schedule: Q01DX Z (ip), vehicle: carboxymethylcellulose (CMC)
  T/C: 90 % of control
[2]
  T/C: 111 % of control
[3]
  T/C: 112 % of control
[4]
  T/C: 110 % of control
[1]
  T/C: 172 % of control
dose: 2.5 mg/kg/injection, schedule: Q01DX Z (ip), vehicle: carboxymethylcellulose (CMC)
  T/C: 105 % of control
dose: 4.0 mg/kg/injection, schedule: Q01DX010 (ip), vehicle: saline
  T/C: 188 % of control
dose: 5.0 mg/kg/injection, schedule: Q01DX010 (ip), vehicle: saline
  T/C: 150 % of control
dose: 5.0 mg/kg/injection, schedule: Q01DX Z (ip), vehicle: carboxymethylcellulose (CMC)
  T/C: 97 % of control
[5]
  T/C: 187 % of control
dose: 10.0 mg/kg/injection, schedule: Q01DX Z (ip), vehicle: carboxymethylcellulose (CMC)
  T/C: 97 % of control
dose: 16.0 mg/kg/injection, schedule: Q01DX010 (ip), vehicle: saline
  T/C: 88 % of control

## N#[N+]c1cnc([O-])[nH]c1=O
[2]
  T/C: 112 % of control
[3]
  T/C: 105 % of control
[4]
  T/C: 117 % of control
dose: 2.5 mg/kg/injection, schedule: Q01DX010 (ip), vehicle: saline
  T/C: 104 % of control
[5]
  T/C: 155 % of control

## [I][Hg][CH2]C1COC([CH2][Hg][I])CO1 (stereo not given)
dose: 0.95 mg/kg/injection, schedule: Q01DX Z (ip), vehicle: carboxymethylcellulose (CMC)
  T/C: 97 % of control
dose: 1.9 mg/kg/injection, schedule: Q01DX Z (ip), vehicle: carboxymethylcellulose (CMC)
  T/C: 94 % of control
dose: 3.75 mg/kg/injection, schedule: Q01DX Z (ip), vehicle: carboxymethylcellulose (CMC)
  T/C: 90 % of control
dose: 6.25 mg/kg/injection, schedule: Q01DX010 (ip), vehicle: saline
  T/C: 100 % of control
dose: 12.5 mg/kg/injection, schedule: Q01DX010 (ip), vehicle: saline
  T/C: 100 % of control
dose: 15.0 mg/kg/injection, schedule: Q01DX Z (ip), vehicle: carboxymethylcellulose (CMC)
  T/C: 94 % of control
dose: 25.0 mg/kg/injection, schedule: Q01DX010 (ip), vehicle: saline
  T/C: 100 % of control
dose: 50.0 mg/kg/injection, schedule: Q01DX010 (ip), vehicle: saline
  T/C: 88 % of control

## C[n+]1c2ccccc2nc2c(N)cc(N)cc21
dose: 3.1 mg/kg/injection, schedule: Q01DX Z (ip), vehicle: carboxymethylcellulose (CMC)
  T/C: 114 % of control
dose: 6.25 mg/kg/injection, schedule: Q01DX Z (ip), vehicle: carboxymethylcellulose (CMC)
  T/C: 97 % of control
dose: 6.3 mg/kg/injection, schedule: Q01DX Z (ip), vehicle: carboxymethylcellulose (CMC)
  T/C: 115 % of control
dose: 12.5 mg/kg/injection, schedule: Q01DX Z (ip), vehicle: carboxymethylcellulose (CMC)
  T/C: 104 % of control and 105 % of control
dose: 25.0 mg/kg/injection, schedule: Q01DX Z (ip), vehicle: carboxymethylcellulose (CMC)
  T/C: 117 % of control and 96 % of control

## CN(C)c1nc(N(C)C)nc(N(C)C)n1
dose: 75.0 mg/kg/injection, schedule: Q01DX010 (ip), vehicle: saline
  T/C: 90 % of control
dose: 125.0 mg/kg/injection, schedule: Q01DX Z (ip), vehicle: carboxymethylcellulose (CMC)
  T/C: 97 % of control

## O=C(Nc1ccc(C2=NCCCN2)cc1)c1ccc(C(=O)Nc2ccc(C3=NCCCN3)cc2)cc1
dose: 0.2 mg/kg/injection, schedule: Q01DX Z (ip), vehicle: water
  T/C: 100 % of control
dose: 0.4 mg/kg/injection, schedule: Q01DX Z (ip), vehicle: water
  T/C: 109 % of control
dose: 0.5 mg/kg/injection, schedule: Q01DX010 (ip), vehicle: other
  T/C: 116 % of control and 120 % of control
dose: 1.0 mg/kg/injection, schedule: Q01DX010 (ip), vehicle: other
  T/C: 150 % of control
dose: 1.6 mg/kg/injection, schedule: Q01DX Z (ip), vehicle: water
  T/C: 177 % of control
dose: 2.0 mg/kg/injection, schedule: Q01DX010 (ip), vehicle: other
  T/C: 192 % of control and 216 % of control
dose: 3.1 mg/kg/injection, schedule: Q01DX Z (ip), vehicle: water
  T/C: 273 % of control
dose: 4.0 mg/kg/injection, schedule: Q01DX010 (ip), vehicle: other
  T/C: 164 % of control and 212 % of control
dose: 8.0 mg/kg/injection, schedule: Q01DX010 (ip), vehicle: other
  T/C: 91 % of control

## CC/C(=C(/CC)c1ccc(O)cc1)c1ccc(O)cc1
dose: 1.0 mg/kg/injection, schedule: Q01DX Z (sc), vehicle: steriod suspending solution
  T/C: 100 % of control
dose: 2.0 mg/kg/injection, schedule: Q01DX Z (sc), vehicle: steriod suspending solution
  T/C: 103 % of control
dose: 4.0 mg/kg/injection, schedule: Q01DX Z (sc), vehicle: steriod suspending solution
  T/C: 97 % of control
dose: 8.0 mg/kg/injection, schedule: Q01DX Z (sc), vehicle: steriod suspending solution
  T/C: 118 % of control
dose: 12.5 mg/kg/injection, schedule: Q01DX010 (sc), vehicle: steriod suspending solution
  T/C: 100 % of control
dose: 16.0 mg/kg/injection, schedule: Q01DX Z (sc), vehicle: steriod suspending solution
  T/C: 118 % of control
dose: 25.0 mg/kg/injection, schedule: Q01DX010 (sc), vehicle: steriod suspending solution
  T/C: 106 % of control
dose: 31.0 mg/kg/injection, schedule: Q01DX Z (sc), vehicle: steriod suspending solution
  T/C: 103 % of control
dose: 50.0 mg/kg/injection, schedule: Q01DX010 (sc), vehicle: steriod suspending solution
  T/C: 112 % of control and 121 % of control
dose: 62.0 mg/kg/injection, schedule: Q01DX Z (sc), vehicle: steriod suspending solution
  T/C: 97 % of control
dose: 100.0 mg/kg/injection, schedule: Q01DX010 (sc), vehicle: steriod suspending solution
  T/C: 114 % of control and 100 % of control
dose: 125.0 mg/kg/injection, schedule: Q01DX Z (sc), vehicle: steriod suspending solution
  T/C: 91 % of control
dose: 250.0 mg/kg/injection, schedule: Q01DX Z (sc), vehicle: steriod suspending solution
  T/C: 101 % of control
